Values of other authors, collected in PubChem BioAssay AID1259409 (Chemical Carcinogenesis Research Information System (CCRIS), 2018).
Several values for one entry are separate records, joined by “and”; a condition that tells them apart may be missing. Equal entries are not always repeated.

System: rodent chemically induced tumor inhibition, incidence and multiplicity
Experiment: CCRIS tumor inhibitor studies
Conditions: Route [Inhibitor]: ORAL, Species: RAT

Structure (SMILES): CC1=C(/C=C/C(C)=C/C=C/C(C)=C/C(=O)Nc2ccc(O)cc2)C(C)(C)CCC1
- tumour outcome (control, treated, inhibition, significance) (Carcinogen: N-METHYL-N'-NITROSOUREA, 684-93-5, Dose [Inhibitor]: 0, 782 MG/KG IN DIET FOR DURATION OF STUDY BEGINNING 60 D PRIOR TO CARCINOGEN DOSE (STUDY DURATION: 240 D), Strain/Sex: SPRAGUE-DAWLEY/FEMALE, Target Tissue: Type of Lesion: MAMMARY GLAND: TUMOR, Dose [Carcinogen]: 50 MG/KG BW ONCE, Promoter: NONE USED): 80%, 28%, 65%, p<0.oo5 and 68%, 42%, 38%, p<0.005
- tumour outcome (control, treated, inhibition, significance) (Carcinogen: N-METHYL-N-NITROSOUREA [684-93-5], Dose [Inhibitor]: 2 MMOL/KG IN DIET FOR 6 WK BEGINNING 4 WK POST LAST CARCINOGEN DOSE (STUDY DURATION: 11 WK), Strain/Sex: SPRAGUE-DAWLEY/FEMALE, Target Tissue: Type of Lesion: MAMMARY GLAND: CARCINOMA, Dose [Carcinogen]: 50 MG/KG BW IP 1X/WK FOR 2 WK (STUDY DURATION: 11 WK), Promoter: NONE): 95.4%, 87.5%, 8.3%
- tumour outcome (control, treated, inhibition, significance) (Carcinogen: N-METHYL-N-NITROSOUREA [684-93-5], Dose [Inhibitor]: 2 MMOL/KG IN DIET FOR 10 WK BEGINNING 2 D POST LAST CARCINOGEN DOSE (STUDY DURATION: 11 WK), Strain/Sex: SPRAGUE-DAWLEY/FEMALE, Target Tissue: Type of Lesion: MAMMARY GLAND: CARCINOMA, Dose [Carcinogen]: 50 MG/KG BW IP 1X/WK FOR 2 WK (STUDY DURATION: 11 WK), Promoter: NONE): 95.4%, 45.0%, 53%, p<0.05
- tumour outcome (control, treated, inhibition, significance) (Carcinogen: N-METHYL-N-NITROSOUREA [684-93-5], Dose [Inhibitor]: 196 MG/KG DIET BEGINNING 7 D PRIOR TO CARCINOGEN DOSE (STUDY DURATION: 187 D), Strain/Sex: SPRAGUE-DAWLEY/FEMALE, Target Tissue: Type of Lesion: MAMMARY GLAND: ADENOCARCINOMA, Dose [Carcinogen]: 50 MG/KG BW ONCE AT 100 D OF AGE): 23/40 (57%), 17/40 (43%), 24.6%,p<0.01
- tumour outcome (control, treated, inhibition, significance) (Carcinogen: N-METHYL-N-NITROSOUREA [684-93-5], Dose [Inhibitor]: 586 MG/KG DIET BEGINNING 3 D POST-CARCINOGEN DOSE (STUDY DURATION: 150 D), Strain/Sex: SPRAGUE-DAWLEY/FEMALE, Target Tissue: Type of Lesion: MAMMARY GLAND: ADENOCARCINOMA, Dose [Carcinogen]: 50 MG/KG BW ONCE AT 50 D OF AGE): 25/25 (100%), 24/25 (96%), 4%, not significant
- tumour outcome (control, treated, inhibition, significance) (Carcinogen: N-METHYL-N-NITROSOUREA, 684-93-5, Dose [Inhibitor]: 0, 1 MMOL/KG IN DIET FOR 7 MO BEGINNING 7 MO POST CARCINOGEN DOSE (STUDY DURATION: 14 MO), Strain/Sex: LOBUND WISTAR/MALE, Target Tissue: Type of Lesion: PROSTATE: ADENOCARCINOMA, Dose [Carcinogen]: 30 MG/KG BW ONCE, Promoter: TESTOSTERONE PROPIONATE, 57-85-2): 16/18 (89%), 4/19 (21%), 76%, p<0.001
- tumour outcome (control, treated, inhibition, significance) (Carcinogen: N-METHYL-N-NITROSOUREA, 684-93-5, Dose [Inhibitor]: 0, 328 MG/KG OF DIET FOR DURATION OF STUDY BEGINNING 1 WK PRIOR TO CARCINOGEN TREATMENT (STUDY DURATION: 117 D), Strain/Sex: SPRAGUE-DAWLEY/FEMALE, Target Tissue: Type of Lesion: MAMMARY GLAND: ADENOCARCINOMA, Dose [Carcinogen]: 50 MG/KG BW ONCE, Promoter: NONE USED): 100%, 84%, 16%, not significant
- tumour outcome (control, treated, inhibition, significance) (Carcinogen: N-METHYL-N-NITROSOUREA, 684-93-5, Dose [Inhibitor]: 0, 391 MG/KG DIET BEGINNING AFTER THE SURGICAL REMOVAL OF THE FIRST PALPABLE TUMOR (STUDY DURATION: LIFETIME), Strain/Sex: SPRAGUE-DAWLEY/FEMALE, Target Tissue: Type of Lesion: MAMMARY GLAND: TUMOR, Dose [Carcinogen]: 35 MG/KG ONCE AT 50 DAYS OF AGE, Promoter: NONE USED): 93%, 95%, -2%, not calculated
- tumour outcome (control, treated, inhibition, significance) (Carcinogen: N-METHYL-N-NITROSOUREA, 684-93-5, Dose [Inhibitor]: 0, 782 MG/KG DIET BEGINNING AFTER THE SURGICAL REMOVAL OF THE FIRST PALPABLE TUMOR (STUDY DURATION: LIFETIME), Strain/Sex: SPRAGUE-DAWLEY/FEMALE, Target Tissue: Type of Lesion: MAMMARY GLAND: TUMOR, Dose [Carcinogen]: 35 MG/KG ONCE AT 50 DAYS OF AGE, Promoter: NONE USED): 93%, 89%, 4%, not calculated
- tumour outcome (control, treated, inhibition, significance) (Carcinogen: N-METHYL-N-NITROSOUREA, 684-93-5, Dose [Inhibitor]: 0, 782 MG/KG DIET REDUCED TO 391 MG/KG DIET 2 WK POST CARCINOGEN DOSE (STUDY DURATION: 450 D), Strain/Sex: WISTAR-UNILEVER/MALE, Target Tissue: Type of Lesion: PROSTATE/SEMINAL VESICLE: ADENOCARCINOMA, Dose [Carcinogen]: 50 MG/KG BW ONCE, Promoter: TESTOSTERONE PROPIONATE, 57-85-2): 67%, 62%, 7%, not significant
- tumour outcome (control, treated, inhibition, significance) (Carcinogen: N-METHYL-N-NITROSOUREA, 684-93-5, Dose [Inhibitor]: 0, 782 MG/KG OF CASEIN-BASED AIN-76A DIET FOR DURATION OF STUDY BEGINNING 7 D POST CARCINOGEN DOSE (STUDY DURATION: 25 W, Strain/Sex: F344/FEMALE, Target Tissue: Type of Lesion: MAMMARY GLAND: TUMOR, Dose [Carcinogen]: 45 MG/KG BW ONCE AT 5O D OF AGE, Promoter: NONE USED): 18/25 (72%), 20/25 (80%), -11%, not significant
- tumour outcome (control, treated, inhibition, significance) (Carcinogen: N-METHYL-N-NITROSOUREA, 684-93-5, Dose [Inhibitor]: 0, 782 MG/KG OF DIET FOR DURATION OF STUDY BEGINNING 1 WK PRIOR TO CARCINOGEN TREATMENT (STUDY DURATION: 117 D), Strain/Sex: SPRAGUE-DAWLEY/FEMALE, Target Tissue: Type of Lesion: MAMMARY GLAND: ADENOCARCINOMA, Dose [Carcinogen]: 50 MG/KG BW ONCE, Promoter: NONE USED): 100%, 42%, 58%, not calculated
- tumour outcome (control, treated, inhibition, significance) (Carcinogen: N-METHYL-N-NITROSOUREA, 684-93-5, Dose [Inhibitor]: 0, 782 MG/KG OF GRAIN-BASED NIH-07 DIET FOR DURATION OF STUDY BEGINNING 7 D PRIOR TO CARCINOGEN DOSE (STUDY DURATION: 26, Strain/Sex: F344/FEMALE, Target Tissue: Type of Lesion: MAMMARY GLAND: TUMOR, Dose [Carcinogen]: 45 MG/KG BW ONCE AT 50 D OF AGE, Promoter: NONE USED): 13/25 (52%), 7/25 (28%), 46%, not significant
